From US9056835B2, “LPA2 receptor-specific benzoic acid derivatives” (University of Tennessee Research Foundation, priority 2012, dated 2015)

Tested on: vector- and LPA2-transduced MEF cells
Experiment: Cell proliferation assay
Assay type: cell-based, mouse
Conditions: LPA 1 μM, OTP 1 μM, GRI977143 10 μM; for cell growth: LPA2-transduced MEF; for cell proliferation: vector-transduced MEF
Method: Mouse embryonic fibroblast (MEF) cells were isolated from E13.5 LPA1&2 double knockout (DKO) embryos. MEFs were transduced with empty vector or LPA2-containing lentiviruses and selected with 1.5 μg/ml puromycin. Cells were maintained in Dulbecco's modified Eagle medium (DMEM) supplemented with 10% (V/V) fetal bovine serum (FBS), 2 mM L-glutamine, 100 U/mL penicillin, and 100 μg/mL streptomycin. Serum-free medium contained 0.1% (W/V) BSA in DMEM. The rat intestinal epithelial cell line 6 (IEC-6) was obtained from the American Type Culture Collection (Rockville, Md.) at passage 13; passages 16-21 were used in all experiments. IEC-6 cells were maintained in a humidified 37° C. incubator in an atmosphere of 90% air and 10% CO2. Growth medium consisted of DMEM supplemented with 5% heat inactivated FBS, 10 μg/mL insulin, and 50 μg/mL gentamycin. The composition of the serum-starvation medium was the same as that of the full growth medium except that it contained no FBS. The McArdle rat hepatoma cell line (RH7777) stably expressing LPA2 receptors was a gift from Dr. Fumikazu Okajima (Gunma University, Maebashi, Japan). RH7777 cells stably expressing LPA1 or LPA3 receptors were generated in-house and had been characterized earlier. Wild type and LPA receptor (LPAR) stably transfected RH7777 cells were grown in DMEM supplemented with 10% FBS and 2 mM L-glutamine in the presence of 250 μg/ml G418. Chinese hamster ovary (CHO) cells stably expressing either vector or LPA4 receptor were a kind gift from Dr. Takao Shimizu (Tokyo University; Tokyo, Japan). Cells were cultured in Ham's F12 medium containing 10% FBS, 2 mM L-glutamine, and 350 μg/ml G418. Rat neuroblastoma cells (B103) were transduced with the lentivirus harboring wild type of FLAG-LPA5 and selected with puromycin to establish the stable cell lines. The stable cells were maintained in DMEM supplemented with 10% FBS and 0.4 μg/ml puromycin. GPR87- and P2Y10-expressing CHO cells and vector-transfected control cells were a gift from Dr. Norihisha Fujita (Ritsumeikan University; Shiga, Japan). The highly invasive MM1 rat hepatoma cells (gift from Dr. Michiko Mukai, Osaka University, Japan) were grown in suspension in DMEM supplemented with 10% (V/V) FBS, 2 mM L-glutamine, 100 U/mL penicillin, and 100 μg/mL streptomycin. Human umbilical vein endothelial cells (HUVEC) were purchased from VEC Technologies Inc. (Rensselaer, N.Y., USA) and cultured in MCDB-131 complete medium supplemented with 10% (V/V) FBS, 90 μg/mL heparin, 10 ng/mL EGF, 1 μg/mL hydrocortisone, 0.2 mg/mL EndoGrowth (VEC Technologies Inc.) supplement, 100 U/mL penicillin G, 100 μg/mL streptomycin, and 25 μg/mL amphotericin B.
For determination of the effect of the LPA receptor ligands on cell growth, vector- and LPA2-transduced MEF cells (2×10^4) were plated in each well of a 24-well plate in full growth medium. Cells were counted the next day and the medium was replaced with medium containing 1.5% (V/V) FBS supplemented with or without 1 μM LPA, 1 μM OTP, or 10 μM GRI977143. Media containing LPA, OTP, and GRI977143 were refreshed every 24 h. The growth rate was measured by counting the number of cells in triplicate using the Z1 Coulter Particle Counter (Beckman Coulter; Hileah, Fla.) as a function of time.

Row | Compound | cell growth | cell proliferation
1 | CCCCCCCC/C=C\CCCCCCCC(=O)OC[C@@H](O)COP(=O)(O)O [LPA 18:1, Lysophosphatidic acid (18:1)] | significant from 24 hours onwards | no significant effect
2 | octadecenyl thiophosphate [OTP] | significant from 24 hours onwards | significantly (p<0.001) increased
3 | O=C(O)c1ccccc1SCCCN1C(=O)c2cccc3cccc(c23)C1=O [GRI977143] | significant from 24 hours onwards | did not cause a significant increase in vector cell proliferation except at 72 hours
